# Laboratory results: patent publication US7910622B2, “Modulation of bacterial quorum sensing with synthetic ligands” (Wisconsin Alumni Research Foundation, priority 2007, dated 2011)
# Like-named read-outs stand apart in the source and are kept apart here.
# Columns and labels:
# Test in all cases: cell-based
# TraR = biological target: T1, TraR (Agrobacterium tumefaciens, UniProt P33905); conditions: for A. tumefaciens-TraR Activation [%]: 10 μM ligand; for A. tumefaciens-TraR Activation [%] / A. tumefaciens-TraR Inhibition [%] / inhibition at 10 µM: A. tumefaciens WCF47 (pCF372), normalized to OOHL; for A. tumefaciens-TraR Inhibition [%]: 10 μM synthetic ligand against 100 nM OOHL; for inhibition at 10 µM: read-out: A. tumefaciens-TraR Inhibition [%], 10 μM synthetic ligand against 100 nM OOHL; for activation at 10 µM: read-out: A. tumefaciens-TraR Activation [%]
# T1 construct: These strains lack their AHL synthase (I) genes, but retain their native R genes; endogenous in cells; host or cells: A. tumefaciens WCF47 (Δ-traI) with PtraI-lacZ plasmid pCF372
# LasR = biological target: T2, LasR (Pseudomonas aeruginosa, UniProt P25084); conditions: for E. coli-LasR Activation [%]: 5 μM ligand; for E. coli-LasR Activation [%] / activation at 5 µM: E. coli DH5α (pJN105L pSC11), normalized to OdDHL; for activation at 5 µM: read-out: E. coli-LasR Activation [%], 5 μM ligand
# T2 construct: expressed in transfected cells; host or cells: E. coli DH5α (pJN105L pSC11), arabinose-induced
# Procedure, shortened: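 E. coli DH5α carrying pJN105L/pSC11 grown to OD600 0.3, LasR expression induced with arabinose (4 mg/mL), then incubated with AHLs at 37 °C to OD600 0.45. LasR activity read by β-galactosidase reporter assay; IC50/EC50 from sigmoidal dose-response fits.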
# LuxR = biological target: T3, LuxR (Aliivibrio fischeri, UniProt P35327); design: species or system Vibrio fischeri; conditions: for V. fischeri-LuxR Activation [%]: 200 μM ligand; for V. fischeri-LuxR Activation [%] / activation at 200 µM: normalized to OHHL; for activation at 200 µM: read-out: V. fischeri-LuxR Activation [%], 200 μM ligand
# T3 construct: a Δ-luxI derivative of V. fischeri ES114, in which the native lux operon behaves as the bioluminescent reporter; endogenous in cells; host or cells: V. fischeri ES114 (Δ-luxI)
# Procedure, shortened: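 Whole-cell luminescence reporter in V. fischeri ES114 (WT, Δ-luxI or Δ-luxR) or E. coli, overnight cultures diluted 1:10 and grown with compound at RT (E. coli 30° C) to OD600 0.35-0.4 (4-6 h). Luminescence normalized to cell density, triplicates; EC50/IC50 from sigmoidal fit.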
# T3 sequence (P35327 whole entry): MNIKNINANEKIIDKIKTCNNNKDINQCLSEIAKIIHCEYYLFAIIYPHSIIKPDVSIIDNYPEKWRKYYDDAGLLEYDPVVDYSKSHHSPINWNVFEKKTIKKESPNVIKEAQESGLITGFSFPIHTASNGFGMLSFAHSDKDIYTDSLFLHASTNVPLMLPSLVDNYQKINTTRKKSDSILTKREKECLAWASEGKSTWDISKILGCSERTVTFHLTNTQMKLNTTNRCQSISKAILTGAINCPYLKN
# T1 sequence (P33905 whole entry): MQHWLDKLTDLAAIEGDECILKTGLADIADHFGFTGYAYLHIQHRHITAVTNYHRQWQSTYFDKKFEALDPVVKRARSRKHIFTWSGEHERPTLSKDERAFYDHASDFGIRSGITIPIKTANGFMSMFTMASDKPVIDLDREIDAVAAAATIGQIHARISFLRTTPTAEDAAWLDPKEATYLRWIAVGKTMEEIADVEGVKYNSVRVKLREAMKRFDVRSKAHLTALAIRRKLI
# T2 sequence (P25084 whole entry): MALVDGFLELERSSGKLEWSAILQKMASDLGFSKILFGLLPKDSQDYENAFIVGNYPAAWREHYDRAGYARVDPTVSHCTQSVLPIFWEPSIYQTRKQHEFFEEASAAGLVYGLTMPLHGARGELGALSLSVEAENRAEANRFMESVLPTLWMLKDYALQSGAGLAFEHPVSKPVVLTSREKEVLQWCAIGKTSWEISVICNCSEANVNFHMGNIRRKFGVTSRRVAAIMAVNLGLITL
Molecule,A. tumefaciens-TraR Activation [%] (TraR),A. tumefaciens-TraR Inhibition [%] (TraR),E. coli-LasR Activation [%] (LasR),inhibition at 10 µM (TraR),V. fischeri-LuxR Activation [%] (LuxR; V. fischeri ES114 (Δ-luxI)),activation at 10 µM (TraR),activation at 5 µM (LasR),activation at 200 µM (LuxR; V. fischeri ES114 (Δ-luxI)),further results
3-nitro PHL [B17],0%,46%,11%,,,,,,"EC50 (LuxR; V. fischeri ES114 (Δ-luxI), read-out: LuxR EC50): 350 nM; luminescence induced higher than native ligand OHHL (LuxR; primary agonism assay, 200 μM, same concentration as OHHL): 29%"
"O=C(Cc1ccc(Br)cc1)N[C@H]1CCOC1=O [compound 8, N-(4-bromo-phenylacetanoyl)-L-homoserine lactone, reference compound]",1%,,0%,~90%,3%,,,,"IC50 (TraR; read-out: TraR IC50, determined against 100 nM OOHL): 4.73 µM"
"O=C(Cc1ccc(-c2ccccc2)cc1)NC1CCOC1=O (stereo not shown) [B21, 4-phenyl PHL]",,,,~70%,,0%,0%,7%,
"O=C(Cc1ccc(Br)cc1)N[C@H]1CCOC1=O [A17, 4-bromo-phenylacetanoyl HL, reference compound]",,88%,,,,1%,0%,3%,IC50 (TraR): 4.73 µM
"O=C(CCCc1c[nH]c2ccccc12)N[C@H]1CCOC1=O [A18, indole AHL, reference compound]",0%,35%,3%,,3%,,,,
"O=C(Cc1ccc(-c2ccccc2)cc1)N[C@H]1CCOC1=O [C18, 4-phenyl PHL]",,,,~70%,,0%,0%,7%,"Activation (%) (TraR; A. tumefaciens-TraR, Library C primary agonism screen): 0%; Inhibition (%) (TraR; A. tumefaciens-TraR, Library C primary antagonism screen): 67%; Activation (%) (LasR; E. coli-LasR, Library C primary agonism screen): 0%; Activation (%) (LuxR; V. fischeri-LuxR, Library C primary agonism screen): 7%"
